Reference: US7345068B2, “Aromatic amino acid derivatives and medicinal compositions” (priority 2002, dated 2008)

What was measured:
[1] = target: T1, LAT1 (Homo sapiens, UniProt Q01650); test: LAT1 inhibiting activity: inhibition of 14C-L-leucine uptake in T24 cells; format: cell-based; settings: 1 μM 14C-Leu, 1-minute uptake
T1 construct: Using human bladder cancer cell strain T24 cells, in which LAT1 only was strongly expressed; endogenous in cells; host or cells: T24 human bladder cancer cells
T1 sequence (Q01650 whole entry): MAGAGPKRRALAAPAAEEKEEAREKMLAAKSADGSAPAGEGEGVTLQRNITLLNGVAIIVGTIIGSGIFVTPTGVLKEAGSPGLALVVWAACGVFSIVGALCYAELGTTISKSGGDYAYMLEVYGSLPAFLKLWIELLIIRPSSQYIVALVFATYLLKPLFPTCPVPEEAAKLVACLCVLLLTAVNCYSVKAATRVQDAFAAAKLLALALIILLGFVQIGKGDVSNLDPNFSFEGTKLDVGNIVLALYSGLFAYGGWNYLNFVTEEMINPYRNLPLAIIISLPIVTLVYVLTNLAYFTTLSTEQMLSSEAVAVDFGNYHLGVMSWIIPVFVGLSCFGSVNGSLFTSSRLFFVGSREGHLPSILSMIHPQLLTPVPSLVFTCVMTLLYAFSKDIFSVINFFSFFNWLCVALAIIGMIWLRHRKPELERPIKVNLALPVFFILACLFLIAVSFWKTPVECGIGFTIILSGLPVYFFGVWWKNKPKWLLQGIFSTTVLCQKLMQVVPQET
T1 sequence (P08195 102-630 partner): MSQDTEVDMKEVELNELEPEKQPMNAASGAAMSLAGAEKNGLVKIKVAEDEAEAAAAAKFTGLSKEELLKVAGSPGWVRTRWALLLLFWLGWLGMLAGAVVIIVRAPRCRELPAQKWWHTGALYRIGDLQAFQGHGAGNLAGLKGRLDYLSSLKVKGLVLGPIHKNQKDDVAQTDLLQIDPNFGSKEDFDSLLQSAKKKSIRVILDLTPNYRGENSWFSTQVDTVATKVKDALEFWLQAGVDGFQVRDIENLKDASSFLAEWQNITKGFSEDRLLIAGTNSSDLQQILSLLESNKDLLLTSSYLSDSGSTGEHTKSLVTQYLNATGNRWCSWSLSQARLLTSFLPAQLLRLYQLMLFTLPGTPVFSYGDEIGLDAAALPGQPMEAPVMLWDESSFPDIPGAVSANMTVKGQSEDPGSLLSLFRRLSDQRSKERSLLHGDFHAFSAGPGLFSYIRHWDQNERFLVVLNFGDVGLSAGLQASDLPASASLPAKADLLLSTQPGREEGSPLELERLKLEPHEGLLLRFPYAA
Description: 1) To each of the weighed test compounds, DMSO was added to prepare a 100 mM solution or suspension as a DMSO stock. In an assay, the stock was diluted 1,000 fold with a buffer described below. The final concentration of the test compound was 100 μM and the final concentration of DMSO was 0.1%.
2) The LAT1 inhibiting activity of the test compound was determined in the following manner. Using human bladder cancer cell strain T24 cells, in which LAT1 only was strongly expressed, inhibiting activity of each test compound against “^14C”-L-leucine uptake was determined as the LAT1 inhibiting activity.
T24 cells in a logarithmic growth-phase were transferred to a 24-well plate at 0.8×10^5 cell/well and cultured at 37° C. for 2 days. After the plate was incubated at 37° C. on a water bath for 5 minutes, the fixed cells were washed three times with a Hank's balanced salt solution (HBSS: 25 mM HEPES, 125 mM choline chloride, 5.6 mM glucose, 4.8 mM KCl, 1.2 mM MgSO4, 1.2 mM KH2PO4, 1.3 mM CaCl2, pH 7.4) warmed to 37° C., not containing Na^+, to which 500 μl of HBSS (37° C.) was added. Then, further incubation was carried out for 7 minutes.
After the incubation was finished, a supernatant was replaced with HBSS containing 1 μM ^14C-Leu and 100 μM test compound (37° C.), followed by 1-minute uptake. Then, the cells were washed three times with HBSS of 4° C. The washed cells were added with 500 μl of 0.1 N NaOH to dissolve the cells for 20 minutes. The cell solution was transferred to a vial, to which 3 ml of a scintillator was added to measure the radioactivity with a liquid scintillation counter.
Inhibition % was calculated by the following formula. Inhibition %=100−(radioactivity of the well added with the test compound)/(radioactivity of the well not added with the test compound)×100

[2] = Acute toxicity test, intravenous administration of mice (LD50); settings: mouse, in vivo
Description: Further, with respect to the compounds of Examples 77-79 and Example 98, an acute toxicity test for intravenous administration of mice were carried out to obtain LD50.

[3] = system: sarcoma 180 cells; test: Sarcoma 180 subcutaneous implant in mice, tumor weight; format: in vivo, ICR mice; settings: 100 mg/kg intravenously for 7 days; tumor weight 10 days after implantation
Description: In an inguinal region of ICR mice, 1×10^6 sarcoma 180 cells were implanted subcutaneously. After 24 hours from the implantation, administration of the test compounds (Example 6-3) and Example 49-3)) was started, which was continued intravenously for 7 days. Each of the test compounds was dissolved in a physiologic saline containing 10% DMSO and 10% Tween 80 so that the amount of the test compound became 100 mg/kg, which was intravenously administered in an amount of 0.1 ml per 10 g of body weight. After 10 days from the implantation, tumor weight was measured and a proliferation inhibiting rate was calculated by the following formula to be compared with that of nontreated controls. Proliferation inhibiting rate (T/C)=[1−(average tumor weight of the group added with the test compound/average tumor weight of the control group)]×100

[4] = target: T2, human LAT2 (hLAT2) (Homo sapiens, UniProt Q9UHI5); test: Inhibition of leucine uptake into hLAT2 expressing Xenopus oocytes; format: cell-based; settings: 10 μM 14C-Leu, 30 minutes uptake, oocytes with hLAT2 and h4F2hc cRNA
T2 construct: expressed in transfected cells; host or cells: Xenopus laevis oocytes injected with cRNA
T2 sequence (Q9UHI5 1-535): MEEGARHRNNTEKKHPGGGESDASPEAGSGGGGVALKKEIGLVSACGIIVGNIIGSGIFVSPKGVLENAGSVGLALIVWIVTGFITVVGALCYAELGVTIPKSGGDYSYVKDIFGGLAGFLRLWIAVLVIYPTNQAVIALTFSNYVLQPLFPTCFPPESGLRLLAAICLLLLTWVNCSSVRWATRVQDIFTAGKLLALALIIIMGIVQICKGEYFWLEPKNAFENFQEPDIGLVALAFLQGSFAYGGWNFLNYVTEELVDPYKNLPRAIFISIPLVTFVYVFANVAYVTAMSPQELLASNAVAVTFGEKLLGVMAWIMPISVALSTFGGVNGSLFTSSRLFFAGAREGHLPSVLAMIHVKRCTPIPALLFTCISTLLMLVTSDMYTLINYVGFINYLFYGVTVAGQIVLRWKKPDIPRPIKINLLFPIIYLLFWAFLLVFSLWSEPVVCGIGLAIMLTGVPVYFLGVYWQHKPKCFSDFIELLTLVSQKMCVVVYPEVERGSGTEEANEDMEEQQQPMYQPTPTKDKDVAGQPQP
Description: (§1) 1) First, human LAT1 (hereinafter referred to as hLAT1), human LAT2 (hereinafter referred to as hLAT2) and human 4F2hc (hereinafter referred to as h4F2hc) were linearized by restriction enzyme treatment. After ethanol precipitation, they were dissolved in a DEPC treatment solution to prepare a mold cDNA. Then, in vitro transcription reaction was carried out in the following manner.
(§2) Reaction composition (50 μl in total) • Mold cDNA 1.5 μg • RNasin RNase inhibitor (Promega) 100 U • rNTP (Amersham. Pharmacia) 10 mM each (rGTP was 1 mM) • DTT 30 mM • m7G(5′)ppp(5′)G (Amersham. Pharmacia) […] • RNA polymerase (Stratagene) 50 U • Transcription buffer
(§3) As the RNA polymerase for hLAT1, hLAT2 and h4F2hc, T3, SP6 and T7 were used, respectively.
(§4) After the above reagents were mixed, they were reacted at 37° C. for 10 minutes, added with 1 μL of 5 mM rGTP, and reacted again at 37° C. for 10 minutes. Further, 1 μL of 5 mM rGTP was added and the reaction was carried out again at 37° C. for 10 minutes. Then, RNase-free DNase (Stratagene) was added and mixed, followed by incubation at 37° C. for 20 minutes. The reaction solution was sequentially extracted with phenol/chloroform, and then with chloroform. Then, half amount of 7.5 M NH4OAc and 2.5-fold amount of cold ethanol were added to perform ethanol precipitation. After centrifugation at 15000 rpm for 30 minutes, the resulting precipitate was washed with cold 80% ethanol and dissolved in 100 μL of a DEPC treatment solution. Thereafter, ethanol precipitation was performed again. The precipitate obtained by centrifugation at 15000 rpm for 30 minutes was washed with cold 80% ethanol and dried for 20 minutes in a centrifugal concentrator. Then, it was dissolved in a DEPC treatment solution to 0.5 mg/mL to prepare a cRNA solution. Thus, cRNA was prepared by in vitro transcription reaction.
(§5) 2) Xenopus laevis was anesthetized by immersing into an anesthetic solution (0.2% MS-222, 0.3% KHCO3), and then cut open in the abdominal region on ice to take out an oocyte mass under the peritoneum. The extracted oocyte mass was shredded with tweezers, which was added to an OR2 culture medium (5 mM HEPES, 82.5 mM NaCl, 2 mM KCl, 1 mM MgCl2, pH 7.5) containing 2 mg/mL of collagenase, incubated at room temperature for about 30 minutes, washed with the OR2 culture medium and transferred into a Barth culture medium (10 mM HEPES, 88 mM NaCl, 1 mM KCl, 0.33 mM Ca(NO3)2, 0.41 mM CaCl2, 0.82 mM MgSO4, 2.4 mM NaHCO3, pH 7.4).
(§6) Then, a follicular cell layer covering the oocytes was peeled under a stereoscopic microscope to isolate the oocytes, to which 50 nL of a cRNA solution was added, respectively. As the cRNA, an equimolar mixture of hLAT1 cRNA and h4F2hc cRNA was injected into the oocytes for hLAT1 expression, and an equimolar mixture of hLAT2 cRNA and h4F2hc cRNA was injected into the oocytes for hLAT2 expression.
(§7) The control cell was injected with distilled water.
(§8) 3) The oocytes after the injection were cultured in a Barth culture medium containing gentamicin for 2 days, from which healthy oocytes were selected and transferred to a 24-well plate at 8-10 cell/well.
(§9) First, after washing twice with choline 100 (5 mM HEPES, 100 mM choline Cl, 2 mM KCl, 1.8 mM CaCl2, 1 mM MgCl2, pH 7.4) at room temperature, choline 100 containing 10 μM ^14C-Leu and specimens of various concentrations was added for an uptake for 30 minutes. Then, after washing with choline 100 of 4° C. six times, the oocytes were transferred to vials one by one and 250 μL of 10% SDS was added thereto, which was shaken at room temperature for an hour to be dissolved. After an hour, the solution was added with 3 mL of a scintillator to measure the radioactivity using a liquid scintillation counter. Inhibition rate was calculated by the following formula using an average value of 8 to 10 cells. Inhibition rate (%)=100−(radioactivity of the well added with the test compound)/(radioactivity of the well not added with the test compound)×100 […]

[5] = system: human LAT1 (hLAT1); test: Inhibition of leucine uptake into hLAT1 expressing Xenopus oocytes; format: cell-based; settings: IC50 hLAT2 expressing cells / IC50 hLAT1 expressing cells
Description: as §1, §2, §3, §4, §5, §6, §7, §8, §9

[6] = target: T3, human LAT1 (hLAT1) (Homo sapiens, UniProt Q01650); test: as above; format: cell-based; settings: 10 μM 14C-Leu, 30 minutes uptake, oocytes with hLAT1 and h4F2hc cRNA
T3 construct: expressed in transfected cells; host or cells: Xenopus laevis oocytes injected with cRNA
T3 sequence (Q01650 whole entry): as the sequence (Q01650 whole entry) above
Description: as §1, §2, §3, §4, §5, §6, §7, §8, §9

| SMILES | IC50 [1] | LD50 [2] | proliferation inhibiting rate [3] | melting point | IC50 [4] | Selectivity (L2/L1) [5] | IC50 [6] |
| --- | --- | --- | --- | --- | --- | --- | --- |
| NC1(C(=O)O)CC2CCC1C2 (centres unmarked) [BCH, 2-aminobicyclo-(2,2,1)-heptane-2-carboxylic acid, reference compound] | 100000 nM | ≥ 300 mg/kg | – | – | – | – | – |
| COC(=O)[C@@H](N)Cc1cccc(Oc2ccc3ccccc3c2)c1.Cl [Example 49-3), 3-(2-naphthyloxy)-L-phenylalanine methyl ester hydrochloride] | – | – | 41.3% | 209 to 211 °C (dec.) | – | – | – |
| N[C@@H](Cc1cccc(Oc2ccc(Oc3ccc(O)cc3)cc2)c1)C(=O)O [Example 57, 3-[4-(4-hydroxyphenoxy)phenoxy]-L-phenylalanine] | – | – | – | 234 to 237 °C (dec.) | 200 nM | 0.02 times | – |
| N[C@@H](Cc1cc(Cl)c(OCCc2coc(-c3ccc4ccccc4c3)n2)c(Cl)c1)C(=O)O [Example 17] | – | – | – | 232 to 233 °C (dec.) | > 100000 nM | ≥ 100 times | < 1000 nM |
| COC(=O)[C@@H](N)Cc1cc(Cl)c(OCc2cccc3nc(-c4ccccc4)oc23)c(Cl)c1.Cl [Example 6-3), 3,5-Dichloro-O-[(2-phenyl)-benzoxazol-7-yl]methyl-L-tyrosine methyl ester hydrochloride] | – | – | 52.2% | 225 to 225.5 °C (dec.) | – | – | – |
| N[C@@H](Cc1cc(Cl)c(OCCc2coc(-c3ccccc3)n2)c(Cl)c1)C(=O)O [Example 9] | – | – | – | 198 to 205 °C | 69000 nM | 100 times | 700 nM |
| N[C@@H](Cc1cc(Cl)c(OCCc2cccc3nc(-c4ccccc4)oc23)c(Cl)c1)C(=O)O [Example 23] | – | – | – | 205 to 215 °C (dec.) | > 100000 nM | ≥ 100 times | < 1000 nM |
| N[C@@H](Cc1cc(Cl)c(OCCc2csc(-c3ccccc3)n2)c(Cl)c1)C(=O)O [Example 15] | – | – | – | 205 to 210 °C (dec.) | > 100000 nM | ≥ 100 times | < 1000 nM |
| N[C@@H](Cc1cc(Cl)c(OCc2cccc3nc(-c4ccccc4)oc23)c(Cl)c1)C(=O)O [Example 6-2), 3,5-dichloro-O-[(2-phenyl)-benzoxazol-7-yl]methyl-L-tyrosine] | 300 nM | – | – | 233 to 238 °C (dec.) | – | 1000 times | 100 nM |
| N[C@@H](Cc1cccc(OCc2ccc3ccccc3c2)c1)C(=O)O [Example 58, 3-[(2-naphthyl)methoxy]-L-phenylalanine] | 490 nM | – | – | 201 to 204 °C (dec.) | – | – | – |
| NC(Cc1cc(Cl)c(OCc2cccc3c2OC(c2ccccc2)CN3)c(Cl)c1)C(=O)O (centres unmarked) [Example 71] | 370 nM | – | – | 199 to 204 °C (dec.) | – | – | – |
| N[C@@H](Cc1cccc(OCCc2ccc3ccccc3c2)c1)C(=O)O [Example 59, 3-[2-(2-naphthyl)ethoxy]-L-phenylalanine] | – | – | – | 210 to 214 °C (dec.) | < 1000 nM | ≤ 0.1 times | – |
| N[C@@H](Cc1cc(Cl)c(OCc2cccc3nc(-c4ccco4)oc23)c(Cl)c1)C(=O)O [Example 34] | 290 nM | – | – | 227 to 230 °C (dec.) | – | – | – |
| N[C@@H](Cc1cccc(OCCc2ccc3c(c2)CCCC3)c1)C(=O)O [Example 60, 3-[2-[2-(5,6,7,8-tetrahydro-naphthyl)]ethoxy]-L-phenylalanine] | – | – | – | 198 to 202 °C (dec.) | < 1000 nM | ≤ 0.1 times | – |
